Results taken from US10772900B2, “Drug target for treating veterinary infections and methods of using same” (THE TRUSTEES OF THE UNIVERSITY OF PENNSYLVANIA, priority 2016, dated 2020).

Tests used:
[1] = system: S. pseudintermedius; test: plate-based fosmidomycin growth assay; assay type: cell-based, Staphylococcus pseudintermedius; conditions: 50 μg/mL fosmidomycin, Mueller-Hinton agar, 24 hours at 37° C.
Method: (§1) The minimal inhibitory concentration (MIC) of various antimicrobials (amoxicillin-clavulanic acid, ampicillin, cefazolin, chloramphenicol, ciprofloxacin, clindamycin, erythromycin, gentamicin, imipenem, oxacillin, penicillin, rifampin, tetracycline, trimethoprim-sulfamethoxazole, and vancomycin) was determined via broth microdilution on a MicroScan Walkaway 40 PC20 Gram-positive combo-panel (Dade Behring, Sacramento, Calif.). Enrofloxacin and marbofloxacin susceptibilities were determined via Kirby-Bauer disk diffusion as these drugs were not available on the pre-configured commercial test panel. Fosmidomycin MIC assays were performed following clinical laboratory standards. Fosmidomycin (Sigma, St. Louis, USA) was filter-sterilized with a […] filter (Pall Corporation, Ann Arbor, USA) and was serially 2-fold diluted in a concentration range of 40.96-0.25 mg/mL. Tubes containing 1 mL Mueller-Hinton broth (Sigma) were inoculated with 5×10^5 colony forming units/mL. […] The MICS were determined by visual inspection. The minimum bactericidal concentration (MBC) was determined by plating 200 μL of the drug-treated cultures onto Mueller-Hinton agar plates (Remel, Lenexa, USA). The lowest concentration at which there was no growth after a 24-hour incubation at 37° C. was determined to be the MBC. […]

[2] = system: Plasmodium falciparum; conditions: cited from earlier work
[3] = system: S. schleiferi; test: MIC and MBC assays in Mueller-Hinton broth; assay type: cell-based, Staphylococcus schleiferi
Method: (§2) The minimal inhibitory concentration (MIC) of various antimicrobials (amoxicillin-clavulanic acid, ampicillin, cefazolin, chloramphenicol, ciprofloxacin, clindamycin, erythromycin, gentamicin, imipenem, oxacillin, penicillin, rifampin, tetracycline, trimethoprim-sulfamethoxazole, and vancomycin) was determined via broth microdilution on a MicroScan Walkaway 40 PC20 Gram-positive combo-panel (Dade Behring, Sacramento, Calif.). Enrofloxacin and marbofloxacin susceptibilities were determined via Kirby-Bauer disk diffusion as these drugs were not available on the pre-configured commercial test panel. Fosmidomycin MIC assays were performed following clinical laboratory standards. Fosmidomycin (Sigma, St. Louis, USA) was filter-sterilized with a […] filter (Pall Corporation, Ann Arbor, USA) and was serially 2-fold diluted in a concentration range of 40.96-0.25 mg/mL. Tubes containing 1 mL Mueller-Hinton broth (Sigma) were inoculated with 5×10^5 colony forming units/mL. 50 μL of the appropriate fosmidomycin concentration was added to each tube containing the starter culture, and was incubated at 37° C. overnight with shaking at 250 rpm for 18-20 hours. The MICS were determined by visual inspection. The minimum bactericidal concentration (MBC) was determined by plating 200 μL of the drug-treated cultures onto Mueller-Hinton agar plates (Remel, Lenexa, USA). The lowest concentration at which there was no growth after a 24-hour incubation at 37° C. was determined to be the MBC. For the plate-based fosmidomycin growth assay, overnight cultures of Staphylococcus species grown in Mueller-Hinton broth were sub-cultured to Mueller-Hinton agar plates containing 50 μg/mL fosmidomycin and were incubated for 24 hours at 37° C. All assays were performed and the results were interpreted using Clinical Laboratory Standards Institute guidelines (CLSI. (2013) Approved Standard-Fourth Edition. Clinical and Laboratory Standards Institute, Wayne, Pa., USA).

[4] = system: S. epidermidis; test: MIC and MBC assays in Mueller-Hinton broth; assay type: cell-based; conditions: Staphylococcus epidermidis, 37° C., 18-20 hours, read-out: MIC (concentration at which bacteria still grew normally)
Method: as §2

[5] = system: S. lugdunensis; test: MIC and MBC assays in Mueller-Hinton broth; assay type: cell-based; conditions: Staphylococcus lugdunensis, 37° C., 18-20 hours, read-out: MIC (concentration at which bacteria still grew normally)
Method: as §2

[6] = system: S. aureus; test: MIC and MBC assays in Mueller-Hinton broth; assay type: cell-based; conditions: Staphylococcus aureus, 37° C., 18-20 hours, read-out: MIC (concentration at which bacteria still grew normally)
Method: as §2

[7] = system: Plasmodium falciparum; conditions: clinical trials, malaria, administered alone or in combination with clindamycin; cited from earlier work
[8] = fosmidomycin safety trial for otic application in dogs; assay type: in vivo, dog; conditions: 100 micrograms in sterile water twice daily to both ears, 10 days
Method: FIGS. 7A-7C are a series of plots illustrating the outcome of a fosmidomycin safety trial for otic application in dogs. Five colony dogs were used in the safety study. Four of the five dogs were homozygous for ectodermal dysplasia, while the remaining dog was a carrier (heterozygote). Each dog was treated with 100 micrograms of fosmidomycin resuspended in water and applied twice daily to both ears. Pain and inflammation were assessed using the Short Form of the Glasgow Composite Pain Scale (FIG. 7A) and the Otitis Index Score (FIG. 7B and FIG. 7C), respectively. Clinical scoring was carried out prior to fosmidomycin treatment (“pre”), each day of drug application for 10 days, and one day after the cessation of treatment (“post”). Bars represent the mean and standard deviation of scores for the group of 5 dogs at each timepoint. Dotted lines represent field-standard thresholds for clinically significant pain or inflammation.
Five research dogs were used in a safety study testing otic application of fosmidomycin. Four of the five dogs were homozygous for ectodermal dysplasia, while the remaining dog was a carrier (heterozygote). […] Pain and inflammation were assessed using the Short Form of the Glasgow Composite Pain Scale (FIG. 7A) and the Otitis Index Score (FIG. 7B and FIG. 7C), respectively. […]

[9] = system: S. pseudintermedius; test: MIC and MBC assays in Mueller-Hinton broth; assay type: cell-based, Staphylococcus pseudintermedius
Method: as §1

[10] = system: S. aureus; test: plate-based fosmidomycin growth assay; assay type: cell-based, Staphylococcus aureus; conditions: 50 μg/mL fosmidomycin, Mueller-Hinton agar, 24 hours at 37° C.
Method: as §1

[11] = system: S. sciuri; test: MIC and MBC assays in Mueller-Hinton broth; assay type: cell-based, Staphylococcus sciuri
Method: as §1

[12] = system: S. epidermidis; test: plate-based fosmidomycin growth assay; assay type: cell-based, Staphylococcus epidermidis; conditions: 50 μg/mL fosmidomycin, Mueller-Hinton agar, 24 hours at 37° C.
Method: as §1

[13] = system: S. schleiferi; test: plate-based fosmidomycin growth assay; assay type: cell-based, Staphylococcus schleiferi; conditions: 50 μg/mL fosmidomycin, Mueller-Hinton agar, 24 hours at 37° C.
Method: as §1

[14] = plated on Mueller-Hinton agar, 24-hour incubation at 37° C.

For `O=CN(O)CCCP(=O)(O)O` [fosmidomycin], the “growth on agar plates containing fosmidomycin” value (from here on “growth”) [1] is given as “completely restricted growth”, the “killing the parasite in culture” value [2] is given as “effective” and the “inhibition of multi-drug resistant strain” value ([3]; S. schleiferi strain 1360-13, multi-drug resistant phenotype) is given as “inhibited”. The MIC ([3]; Staphylococcus schleiferi, Mueller-Hinton broth, 37° C., 18-20 hours, read-out: MIC (inhibited by concentrations as low as)) was ≥ 0.5 mg/L, the “MBC (killed by concentrations of)” value [3, 14] was 4 to 16 mg/L and the MIC [4] was > 256 mg/L. The MIC [5] was > 256 mg/L, the MIC [6] was > 256 mg/L and the cure rates [7] was 85-100%. The “inflammation score (Otitis Index Score)” value [8] was “clinically insignificant”, the “pain score (Short Form of the Glasgow Composite Pain Scale)” value [8] was “clinically insignificant” and the MIC ([9]; Staphylococcus pseudintermedius, Mueller-Hinton broth, 37° C., 18-20 hours, read-out: MIC (inhibited by concentrations as low as)) was ≥ 0.5 mg/L. For the same molecule, the “MBC (killed by concentrations of)” value [9, 14] was 4 to 16 mg/L, the “growth” value [10] was “grew” and the MIC ([11]; Mammaliicoccus sciuri, Mueller-Hinton broth, 37° C., 18-20 hours, read-out: MIC (inhibited by concentrations as low as)) was ≥ 0.5 mg/L. For the same molecule, the “MBC (killed by concentrations of)” value [11, 14] was 4 to 16 mg/L, the “growth” value [12] was “grew” and the “growth” value [13] was “completely restricted growth”.
